Measured values reported in PMC11371790, “Combination of transcriptomic and proteomic approaches helps unravel the mechanisms of luteolin in inducing liver cancer cell death via targeting AKT1 and SRC” (Frontiers in Pharmacology, 2024).

Key:
SRC = SRC (Homo sapiens, UniProt P12931); test: bio-layer interferometry (biotinylated SRC on SSA sensor, Octet K2); type: binding
AKT1 = AKT1 (Homo sapiens, UniProt P31749); test: bio-layer interferometry (biotinylated active AKT1, Carna […]-101, on SSA sensor, Octet K2); type: binding
Sequence of AKT1 (P31749 whole entry): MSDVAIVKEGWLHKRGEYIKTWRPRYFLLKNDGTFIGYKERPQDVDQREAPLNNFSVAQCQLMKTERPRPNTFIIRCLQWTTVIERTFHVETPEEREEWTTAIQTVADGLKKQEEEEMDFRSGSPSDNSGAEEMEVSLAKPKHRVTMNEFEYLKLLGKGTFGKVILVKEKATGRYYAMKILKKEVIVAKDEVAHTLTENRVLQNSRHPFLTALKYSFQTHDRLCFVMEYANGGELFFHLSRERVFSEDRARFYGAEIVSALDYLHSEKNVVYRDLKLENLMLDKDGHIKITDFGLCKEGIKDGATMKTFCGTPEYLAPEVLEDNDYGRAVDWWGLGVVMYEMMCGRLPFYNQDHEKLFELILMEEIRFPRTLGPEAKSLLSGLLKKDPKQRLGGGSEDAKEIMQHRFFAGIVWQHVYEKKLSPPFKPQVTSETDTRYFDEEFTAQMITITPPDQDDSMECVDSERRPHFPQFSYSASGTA

Sequence of SRC (P12931 2-536): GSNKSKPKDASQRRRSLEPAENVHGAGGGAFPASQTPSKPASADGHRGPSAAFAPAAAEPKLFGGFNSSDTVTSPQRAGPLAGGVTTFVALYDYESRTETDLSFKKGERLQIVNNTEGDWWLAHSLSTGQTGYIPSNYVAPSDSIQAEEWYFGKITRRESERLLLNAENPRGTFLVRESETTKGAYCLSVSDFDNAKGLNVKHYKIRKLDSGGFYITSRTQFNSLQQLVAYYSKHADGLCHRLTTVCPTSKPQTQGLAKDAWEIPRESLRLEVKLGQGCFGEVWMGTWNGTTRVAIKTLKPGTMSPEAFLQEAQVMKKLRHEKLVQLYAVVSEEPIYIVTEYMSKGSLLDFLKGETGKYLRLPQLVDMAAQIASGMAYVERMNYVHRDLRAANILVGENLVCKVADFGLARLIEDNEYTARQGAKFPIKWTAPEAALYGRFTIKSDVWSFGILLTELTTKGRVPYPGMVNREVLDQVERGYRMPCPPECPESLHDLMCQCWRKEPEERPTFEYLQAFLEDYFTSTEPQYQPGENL

SMILES: O=c1cc(-c2ccc(O)c(O)c2)oc2cc(O)cc(O)c12 [Luteolin]
- Kd (SRC): 1.7 µM
- Kd (AKT1): 7.86 µM
